Assay results as given in PubChem BioAssay AID248 (DTP/NCI, 2004).
Where “and” joins values, the source holds several entries; their conditions need not be identical. Identical values can stand only once. Inconclusive results and toxic doses are left out. Rule as the data show it: active = T/C of 150% or more; inactive = T/C below 125%.

System: L1210 leukemia ip in BDF1 mice, survival T/C
Experiment: NCI In Vivo Anticancer Drug Screen. Data for tumor model L1210 Leukemia (intraperitoneal) in B6D2F1 (BDF1) mice
Conditions: endpoint: mean survival time, higher = longer survival
In short: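 Value reflects the ratio of survival in compound-treated mice to survival in vehicle-treated controls, with both groups carrying the same transplanted tumor.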

[1] = dose: 100.0 mg/kg/injection, schedule: Q04DX003 (ip), vehicle: saline with Tween-80
[2] = dose: 200.0 mg/kg/injection, schedule: Q04DX003 (ip), vehicle: saline with Tween-80
[3] = dose: 400.0 mg/kg/injection, schedule: Q04DX003 (ip), vehicle: saline with Tween-80
[4] = dose: 100.0 mg/kg/injection, schedule: Q01DX009 (ip), vehicle: saline
[5] = dose: 100.0 mg/kg/injection, schedule: Q04DX003 (ip), vehicle: saline
[6] = dose: 200.0 mg/kg/injection, schedule: Q01DX009 (ip), vehicle: saline
[7] = dose: 200.0 mg/kg/injection, schedule: Q04DX003 (ip), vehicle: saline
[8] = dose: 400.0 mg/kg/injection, schedule: Q01DX009 (ip), vehicle: saline
[9] = dose: 400.0 mg/kg/injection, schedule: Q04DX003 (ip), vehicle: saline
[10] = dose: 50.0 mg/kg/injection, schedule: Q04DX003 (ip), vehicle: saline
[11] = dose: 100.0 mg/kg/injection, schedule: Q01DX001 (ip), vehicle: saline
[12] = dose: 200.0 mg/kg/injection, schedule: Q01DX001 (ip), vehicle: saline
[13] = dose: 400.0 mg/kg/injection, schedule: Q01DX001 (ip), vehicle: saline

Measured: T/C

CCOc1ccccc1NC(=S)NC(=O)CCc1ccccc1
inactive: dose: 100.0 mg/kg/injection, schedule: Q01DX009 (ip), vehicle: saline with Tween-80 102 % of control and 104 % of control | dose: 100.0 mg/kg/injection, schedule: Q04DX002 (ip), vehicle: saline with Tween-80 104 % of control | [1] 105 % of control | dose: 200.0 mg/kg/injection, schedule: Q01DX009 (ip), vehicle: saline with Tween-80 93 % of control and 108 % of control | dose: 200.0 mg/kg/injection, schedule: Q04DX002 (ip), vehicle: saline with Tween-80 98 % of control | [2] 97 % of control | dose: 400.0 mg/kg/injection, schedule: Q01DX009 (ip), vehicle: saline with Tween-80 97 % of control and 89 % of control | dose: 400.0 mg/kg/injection, schedule: Q04DX002 (ip), vehicle: saline with Tween-80 91 % of control | [3] 89 % of control

CCCNS(=O)(=O)c1ccc(C(=S)OCC)cc1
inactive: dose: 100.0 mg/kg/injection, schedule: Q01DX001 (ip), vehicle: Klucel (hydroxypropylcellulose) (HPC) 98 % of control | dose: 200.0 mg/kg/injection, schedule: Q01DX001 (ip), vehicle: Klucel (hydroxypropylcellulose) (HPC) 98 % of control | dose: 400.0 mg/kg/injection, schedule: Q01DX001 (ip), vehicle: Klucel (hydroxypropylcellulose) (HPC) 94 % of control

OCC1OC([Se][Se]C2OC(CO)C(O)C(O)C2O)C(O)C(O)C1O (stereo not given)
inactive: dose: 6.25 mg/kg/injection, schedule: Q01DX009 (ip), vehicle: saline 99 % of control | dose: 12.5 mg/kg/injection, schedule: Q01DX009 (ip), vehicle: saline 100 % of control | dose: 25.0 mg/kg/injection, schedule: Q01DX009 (ip), vehicle: saline 100 % of control | dose: 100.0 mg/kg/injection, schedule: Q04DX002 (ip), vehicle: saline 105 % of control

Cn1c(C(Cl)Cl)nc2ccccc2c1=O
inactive: dose: 50.0 mg/kg/injection, schedule: Q01DX001 (ip), vehicle: carboxymethylcellulose (CMC) 106 % of control | dose: 100.0 mg/kg/injection, schedule: Q01DX001 (ip), vehicle: carboxymethylcellulose (CMC) 106 % of control | dose: 200.0 mg/kg/injection, schedule: Q01DX001 (ip), vehicle: carboxymethylcellulose (CMC) 106 % of control | dose: 400.0 mg/kg/injection, schedule: Q01DX001 (ip), vehicle: carboxymethylcellulose (CMC) 97 % of control

NC(N)=NCCCC(=O)O
inactive: [4] 92 % of control | [5] 110 % of control | [6] 94 % of control | [7] 108 % of control | [8] 92 % of control | [9] 103 % of control

CC1CC([P+](c2ccccc2)(c2ccccc2)c2ccccc2)=NN1 (stereo not given)
inactive: dose: 25.0 mg/kg/injection, schedule: Q04DX003 (ip), vehicle: saline 120 % of control | [10] 113 % of control

CC(=O)[O][Hg][c]1c(C)c(C)cc(C)c1C
inactive: dose: 6.25 mg/kg/injection, schedule: Q04DX003 (ip), vehicle: saline with Tween-80 93 % of control | dose: 12.5 mg/kg/injection, schedule: Q04DX003 (ip), vehicle: saline with Tween-80 87 % of control | dose: 25.0 mg/kg/injection, schedule: Q04DX003 (ip), vehicle: saline with Tween-80 95 % of control

CCCCNc1nc(N)nc(Nc2ccc(Br)cc2)c1N=O
inactive: dose: 100.0 mg/kg/injection, schedule: Q01DX001 (ip), vehicle: acetone 103 % of control | dose: 100.0 mg/kg/injection, schedule: Q04DX003 (ip), vehicle: acetone 93 % of control | dose: 200.0 mg/kg/injection, schedule: Q01DX001 (ip), vehicle: acetone 100 % of control | dose: 200.0 mg/kg/injection, schedule: Q04DX003 (ip), vehicle: acetone 94 % of control | dose: 400.0 mg/kg/injection, schedule: Q01DX001 (ip), vehicle: acetone 106 % of control | dose: 400.0 mg/kg/injection, schedule: Q04DX003 (ip), vehicle: acetone 100 % of control

NCC(N)C(=O)O (stereo not given)
inactive: [11] 94 % of control | [12] 97 % of control | [13] 94 % of control

CN(C(=O)OCc1ccccc1)c1ccc(C(=O)NC(CC(=O)O)CC(=O)O)cc1
inactive: [11] 88 % of control | [12] 96 % of control | [13] 90 % of control

CC1(C)N=C(N)N=C(N)N1c1cccc(CCC(=O)Nc2ccc(S(=O)(=O)F)cc2)c1
inactive: dose: 0.8 mg/kg/injection, schedule: Q01DX009 (ip), vehicle: saline 103 % of control | dose: 4.0 mg/kg/injection, schedule: Q01DX009 (ip), vehicle: saline 101 % of control | dose: 20.0 mg/kg/injection, schedule: Q01DX009 (ip), vehicle: saline 103 % of control | [4] 112 % of control

CC(C)CC(=O)CC(O)(C(F)(F)F)C(F)(F)F
inactive: dose: 50.0 mg/kg/injection, schedule: Q01DX009 (ip), vehicle: saline 101 % of control | [10] 94 % of control | [4] 104 % of control | [5] 92 % of control | [6] 104 % of control | [7] 100 % of control | [8] 93 % of control | [9] 103 % of control

CSc1nc2ccccc2s1
inactive: dose: 100.0 mg/kg/injection, schedule: Q01DX009 (ip), vehicle: Klucel (hydroxypropylcellulose) (HPC) 97 % of control | dose: 100.0 mg/kg/injection, schedule: Q04DX003 (ip), vehicle: Klucel (hydroxypropylcellulose) (HPC) 105 % of control | dose: 200.0 mg/kg/injection, schedule: Q01DX009 (ip), vehicle: Klucel (hydroxypropylcellulose) (HPC) 100 % of control | dose: 200.0 mg/kg/injection, schedule: Q04DX003 (ip), vehicle: Klucel (hydroxypropylcellulose) (HPC) 104 % of control | dose: 400.0 mg/kg/injection, schedule: Q04DX003 (ip), vehicle: Klucel (hydroxypropylcellulose) (HPC) 95 % of control

CCOC(=O)c1[nH]c(=S)n(-c2ccccc2)c1C(=O)OCC
inactive: dose: 100.0 mg/kg/injection, schedule: Q01DX001 (ip), vehicle: other 97 % of control | dose: 100.0 mg/kg/injection, schedule: Q01DX009 (ip), vehicle: other 94 % of control and 95 % of control | dose: 100.0 mg/kg/injection, schedule: Q04DX002 (ip), vehicle: other 93 % of control and 87 % of control | dose: 200.0 mg/kg/injection, schedule: Q01DX001 (ip), vehicle: other 108 % of control | dose: 200.0 mg/kg/injection, schedule: Q01DX009 (ip), vehicle: other 94 % of control and 115 % of control | dose: 200.0 mg/kg/injection, schedule: Q04DX002 (ip), vehicle: other 96 % of control and 97 % of control | dose: 400.0 mg/kg/injection, schedule: Q01DX001 (ip), vehicle: other 103 % of control | dose: 400.0 mg/kg/injection, schedule: Q01DX009 (ip), vehicle: other 112 % of control and 90 % of control | dose: 400.0 mg/kg/injection, schedule: Q04DX002 (ip), vehicle: other 93 % of control and 114 % of control

N#Cc1[nH]cnc1NN=NCCCl
inactive: dose: 12.5 mg/kg/injection, schedule: Q01DX001 (ip), vehicle: saline with Tween-80 109 % of control | dose: 25.0 mg/kg/injection, schedule: Q01DX001 (ip), vehicle: saline with Tween-80 104 % of control | dose: 50.0 mg/kg/injection, schedule: Q01DX001 (ip), vehicle: saline with Tween-80 116 % of control | dose: 100.0 mg/kg/injection, schedule: Q01DX001 (ip), vehicle: saline with Tween-80 118 % of control

O=S(=O)(CC(I)c1ccccc1)c1ccccc1 (stereo not given)
inactive: [5] 105 % of control | [7] 94 % of control | [9] 92 % of control

CCN(C(=O)c1ccc2c3c(ccc(C(=O)N(CC)c4ccccc4)c13)CC2)c1ccccc1
inactive: [11] 104 % of control | [12] 104 % of control | [13] 95 % of control

CS/C(N)=N\C(=O)N(C)C
inactive: [1] 97 % of control | [2] 98 % of control | [3] 101 % of control

CC(OC(=O)c1ccccc1O)c1ccccc1 (stereo not given)
inactive: [5] 96 % of control | [7] 96 % of control | [9] 100 % of control
